Earlier results as cited in patent US8109913B2, “Coiled wire for the controlled release of drugs to the eye” (DSM IP Assets B.V., priority 2005, dated 2012).

Columns and labels:
[1] = in vivo, device loaded with atropine
[2] = in vitro

Which Mydriasis [1] does the source give for `CN1[C@@H]2CC[C@H]1C[C@@H](OC(=O)C(CO)c1ccccc1)C2` (some centres unmarked) [atropine] here?
Its Mydriasis is “mydriasis can be obtained”.

For `N#Cc1c(N2C[C@@H]3CCCN[C@@H]3C2)c(F)cc2c(=O)c(C(=O)O)cn(C3CC3)c12` [pradofloxacin], which “Activity of the drug when released from the coating” value [2] is on record?
The value was “still active”.
